Measurements published in PubChem BioAssay (NCI).
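Briefly, cells in 96-well plates were exposed to five compound concentrations for 48 h, and endpoints were estimated by linear interpolation. TGI: total growth inhibition.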

Assays:
Experiment in all cases: NCI anticancer screen, dose series, 48 h
[1] = test system: NCI-H460 lung
[2] = test system: DU-145 prostate
[3] = test system: T-47D breast
[4] = test system: TK-10 renal
[5] = test system: A549 NSCLC
[6] = test system: COLO 205 colon
[7] = test system: CAKI-1 renal
[8] = test system: UACC-257 melanoma
[9] = test system: KM12 colon
[10] = test system: SK-MEL-2 melanoma
[11] = test system: HCT-116 colon
[12] = test system: NCI/ADR-RES ovarian
[13] = test system: BT-549 breast
[14] = test system: SK-OV-3 ovarian
[15] = test system: SW-620 colon
[16] = test system: SF-268 CNS
[17] = test system: 786-0 renal
[18] = test system: MDA-MB-435
[19] = test system: IGROV1 ovarian
[20] = test system: CCRF-CEM leukemia
[21] = test system: SNB-19 CNS
[22] = test system: UACC-62 melanoma
[23] = test system: OVCAR-5 ovarian
[24] = test system: SK-MEL-5 melanoma
[25] = test system: SF-295 CNS
[26] = test system: NCI-H23 lung
[27] = test system: HOP-62 NSCLC
[28] = test system: SR leukemia
[29] = test system: NCI-H226 lung
[30] = test system: UO-31 renal
[31] = test system: LOX IMVI melanoma
[32] = test system: SK-MEL-28 melanoma
[33] = test system: HT29 colon
[34] = test system: SN12C renal
[35] = test system: RXF 393 renal
[36] = test system: ACHN renal
[37] = test system: OVCAR-4 ovarian
[38] = test system: EKVX NSCLC
[39] = test system: MOLT-4 leukemia
[40] = test system: U251 CNS
[41] = test system: MDA-N
[42] = test system: SNB-75 CNS
[43] = test system: K-562 leukemia
[44] = test system: MCF7 breast
[45] = test system: HCC-2998 colon
[46] = test system: PC-3 prostate
[47] = test system: MDA-MB-231 breast
[48] = test system: OVCAR-3 ovarian
[49] = test system: HCT-15 colon
[50] = test system: M14 melanoma
[51] = test system: A498 renal
[52] = test system: OVCAR-8 ovarian
[53] = test system: SF-539 CNS
[54] = test system: RPMI-8226 leukemia
[55] = test system: HOP-92 NSCLC

Measured: TGI

COC(=O)C1CCCN1C(=O)OC(C)(C)C (centres undefined)
not listed: [50] | [51] | [52] | [53] | [54] | [55]
> 100 µM: all other assays above

COc1cc(C(=O)N(C(=O)N2CCCCC2)c2ccccc2)cc(OC)c1OC
not listed: [4] | [16] | [33] | [35] | [37]
> 100 µM: all other assays above
